# Test results: US10730851B2, “Polymorph of triaryldimethylpiperazine dihydrochloride and preparation method and application thereof” (priority 2016, dated 2020)
# Experiments:
# SPF-grade SD rats = assay: Forced swimming test; format: in vivo; conditions: 40 mg/kg Ip, three times (23.5 h, 5 h, 1 h before test), x ± SEM
# Protocol: Forced swimming test is used to test the antidepressant effects of polymorph forms P, F, O, B and J.
# the swimming test equipment is a transparent glass round cylinder with a height of 46 cm and an inner diameter of 20 cm, the test water temperature is 23° C.˜25° C., the test water depth is 30 cm, and each cylinder is used only once.
# (§1) 300 mg of a polymorph form P is weighed with an electronic balance, and the polymorph form P is dissolved with 0.9% normal saline, and finally the volume is fixed to 100 mL with 0.9% normal saline, at this time, the concentration of dihydrochloride in the experimental reagent is 3 mg/mL for later use.
# as §1, with “600” for “300”, “6” for “3”
# 400 mg of desipramine (DMI) is weighed with an electronic balance, DMI is dissolved with 0.9% normal saline, and then the volume is fixed to 100 mL with 0.9% normal saline for later use.
# Forty SPF-grade SD rats are prepared and randomly divided into 4 groups, namely vehicle control group, positive control group, experimental group 1 and experimental group 2, with 10 rats in each group. The day before the test, the rats were placed in water for 15 min to pre-swim for 15 min in advance to adapt to the swimming test environment, then taken out and dried, placed in the cage under an infrared lamp for 15 min and then placed in the original cage. After 24 h, a formal swimming test is conducted, that is, the rats are put into water again after 24 h, and the rats are continuously observed for 5 min. The swimming process are needed to be photographed. The drug is administered during two swimming sessions.
# The positive control group containing DMI is administered three times, at 23.5 h, 5 h and 1 h before the formal swimming test respectively. Vehicle control group, experimental group 1 and experimental group 2 are each administered only once and subcutaneously within 1 h.
# The behaviors of the rats are scored by the scorer every 5 seconds after recording the experiment.
# 1) Static—when the rat floats on the water surface without struggling and moves only to keep its head above the water surface, the rat is evaluated as static;
# 2) Swimming—if the rats have obvious swimming behaviors, not only to keep their heads above the water surface, or to travel around in a round cylinder, they are evaluated as swimming;
# 3) Wall climbing—the rats' front paws have obvious behavior of entering and leaving the water surface, usually, rats are evaluated as wall climbing in front of the round cylinder wall.
# All behavioral are scored by a single person. To avoid bias of observation, the scorer only observed and scored without knowing the administration situations. Then multiple test fragments are randomly selected, and the scorer will score the second round to determine the accuracy of observation. The test video is scored again by the second scorer to determine the accuracy between scorers. The second scorer are also required to observe without knowing the drug administration. Finally, in order to determine the effectiveness of the method, the first scorer scored again and recorded the duration of various behaviors with a stopwatch.
# SPSSwin11.0 software is used for variance analysis. One-way variance analysis is used for homogeneity of variance, and Dunnett test is used for heterogeneity of variance.
# [1] = Relative bioavailability test; format: in vivo, SPF-grade SD rats; conditions: rats, 20 mg/kg·bw by gavage in 0.5% CMC-Na, x ± s, n = 6, 20 mg/kg
# Protocol: HPLC-MS/MS method is used to detect the blood drug concentration of target drugs in SPF-grade SD rats, and the relative bioavailability of 0.5% CMC-Na suspension of a free base and 0.5% CMC-Na solution of a polymorph form P are calculated and compared.
# 60.46 mg of a free base is accurately weighed and placed into a 15 mL centrifuge tube, 12 mL of 0.5% CMC-Na solution is measured and added into the centrifuge tube with a measuring cylinder, vortexed for 5 min, and ultrasonically dispersed for 15 min to obtain 0.5% CMC-Na suspension of free base with a concentration of 5.04 mg/ml, which is currently formulated when using and vibrated at any time during administration.
# 60.05 mg of a polymorph form P is accurately weighed and placed into a 15 mL centrifuge tube, 12 mL of 0.5% CMC-Na solution is measured and added into the centrifuge tube with a measuring cylinder, vortexed for 5 min, and ultrasonically dispersed for 15 min to obtain 0.5% CMC-Na solution of 5.00 mg/mL polymorph form P, which is currently formulated when using.
# Twelve SPF-grade SD rats are selected and randomly divided into a free base group and a polymorph form P group with 6 rats in each group (both male and female). Animals are fasted for 12 h but have free access to water. Weighing is performed and, the administration volume of each rat is calculated according to the animal weight, so that the administration dose is 20 mg/kg·bw. During administration, the drugs are each administrated by gavage, and 0.5% CMC-Na suspension/solution of the above two target drugs are extracted by 2 mL syringe respectively. The gavage needle is inserted into the stomach from the corner of the rat's mouth and pushed the solution thereto.
# Blood is collected from the fundus venous plexus of rats at 0.2 mL before (0 h) and 0.5, 1, 2, 4, 6, 8, 12 and 24 h after administration, anticoagulated with 300 IU/mL heparin (1:20) and centrifuged (3000 r/min) for 15 min. After plasma separation, the blood drug concentration of the target drug is determined by HPLC-MS/MS.
# Referring to the above-mentioned bioavailability test of the polymorph form P, the bioavailability tests of polymorph forms F, O, B and J are conducted respectively. Different from the bioavailability test of the polymorph form P, rats are given 0.5% CMC-Na solution of the polymorph form F, O, B or J by gavage respectively. Other operations are the same as the above bioavailability test.
# [2] = Dynamic solubility test in water, SGF, FeSSIF, FaSSIF; format: physicochemical
# Protocol: The dynamic solubility of a free base, polymorph forms B, P, F, J and O in water or a biological medium such as Stimulated Gastric Fluid (SGF), Fed State Simulated Intestinal Fluid (FeSSIF) or Fasted State Simulated Intestinal Fluid (FaSSIF) is determined.
# 0.2 g sodium chloride and 0.1 g Triton X-100 is weighed and placed into a 100 mL volumetric flask. Purified water is added to dissolve. A stir is performed until the solid is completely dissolved. About 135 μL concentrated hydrochloric acid solution (37%, […]) is added, then the pH is adjusted to 1.8 with […] hydrochloric acid or 1 mmoL/L sodium hydroxide. Finally, the volume is fixed with purified water to obtain Stimulated Gastric Fluid (SGF) for later use.
# Each of 0.41 mL glacial acetic acid, 0.20 g sodium hydroxide and 0.59 g sodium chloride is weighed and placed to a 50 mL volumetric flask. About 48 mL purified water is added to dissolve, the pH is adjusted to 5.0 with 1 mmoL/L hydrochloric acid or 1 mmoL/L sodium hydroxide, and the volume is fixed with purified water. Then 0.56 g of Simulated Intestinal Fluid powder (SIF powder for short, which is composed of […] with a molar ratio of 4:1) is added, stirred and ultrasonically dissolved to obtain Fed State Simulated Intestinal Fluid (FeSSIF) for later use.
# Each of 0.17 g of anhydrous sodium dihydrogen phosphate (NaH2PO4), 0.021 g of sodium hydroxide and 0.31 g of sodium chloride is weighed and placed into a 50 mL volumetric flask. About 48 mL of purified water is added to dissolve, the pH is adjusted to 6.5 with 1 mmoL/L hydrochloric acid or 1 mmoL/L sodium hydroxide, and the volume is fixed with purified water. 0.11 g of SIF powder is added, stirred and ultrasonically dissolved to obtain Fasted State Simulated Intestinal Fluid (FaSSIF) for later use.
# Each 30 mg of the free base, and polymorph forms B, P, F, J and O are weighed. 3 mL of purified water, Stimulated Gastric Fluid (SGF), Fed State Simulated Intestinal Fluid (FeSSIF) or Fasted State Simulated Intestinal Fluid (FaSSIF)) is added and oscillated at room temperature. 0.6 mL of suspension is taken each time at a set time point, filtered and separated with a 0.45 μm nylon filter membrane, then XRPD characterization is performed on the solid sample, and the concentration in the clear solution is measured by HPLC.
smiles,measurement,setting,value
"CNCCCN1c2ccccc2CCc2ccccc21 [desipramine, reference compound]","Behavior duration, Static",SPF-grade SD rats,37.5 ± 6.5 s
same,"Behavior duration, Swimming",SPF-grade SD rats,143.0 ± 15.5 s
same,"Behavior duration, Wall climbing",SPF-grade SD rats,119.5 ± 12.0 s
same,"Number of behaviors, Swimming",SPF-grade SD rats,28.6 ± 3.1 times
same,"Number of behaviors, Wall climbing",SPF-grade SD rats,23.9 ± 2.4 times
same,"Number of behaviors, Static",SPF-grade SD rats; 5 min observation,7.5 ± 1.3 times
CC1CCN(C(=O)c2ccc([C@H](c3cccc(O)c3)N3C[C@@H](C)N(Cc4cccc(F)c4)C[C@@H]3C)cc2)CC1 [free base],AUC(0-24h),[1],288.6 ng·h/mL
same,AUC(0-24h),[1]; listed as Free base,288.6 ± 64.7 ng·h/mL
same,Cmax,[1]; listed as Free base,51.68 ± 6.56 ng/mL
same,Tmax,[1]; listed as Free base,3.6 ± 0.9 h
same,t1/2z,[1]; listed as Free base,2.4 ± 0.8 h
same,pH in clear solution,"[2]; FaSSIF, Time 1",6.5
same,Crystal form of insoluble solid sample,"[2]; FaSSIF, Time 1, XRPD",invariability
same,Solubility,"[2]; FaSSIF, Time 1, room temperature",13 µg/mL
same,pH in clear solution,"[2]; FaSSIF, Time 2",6.5
same,Crystal form of insoluble solid sample,"[2]; FaSSIF, Time 2, XRPD",invariability
same,Solubility,"[2]; FaSSIF, Time 2, room temperature",17 µg/mL
same,pH in clear solution,"[2]; FaSSIF, Time 4",6.5
same,Crystal form of insoluble solid sample,"[2]; FaSSIF, Time 4, XRPD",invariability
same,Solubility,"[2]; FaSSIF, Time 4, room temperature",16 µg/mL
same,pH in clear solution,"[2]; FaSSIF, Time 24",6.5
same,Crystal form of insoluble solid sample,"[2]; FaSSIF, Time 24, XRPD",invariability
same,Solubility,"[2]; FaSSIF, Time 24, room temperature",27 µg/mL
same,pH in clear solution,"[2]; FeSSIF, Time 1",4.9
same,Crystal form of insoluble solid sample,"[2]; FeSSIF, Time 1, XRPD",invariability
same,Solubility,"[2]; FeSSIF, Time 1, room temperature",59 µg/mL
same,pH in clear solution,"[2]; FeSSIF, Time 2",5.0
same,Crystal form of insoluble solid sample,"[2]; FeSSIF, Time 2, XRPD",invariability
same,Solubility,"[2]; FeSSIF, Time 2, room temperature",63 µg/mL
same,pH in clear solution,"[2]; FeSSIF, Time 4",5.0
same,Crystal form of insoluble solid sample,"[2]; FeSSIF, Time 4, XRPD",invariability
same,Solubility,"[2]; FeSSIF, Time 4, room temperature",62 µg/mL
same,pH in clear solution,"[2]; FeSSIF, Time 24",5.0
same,Crystal form of insoluble solid sample,"[2]; FeSSIF, Time 24, XRPD",invariability
same,Solubility,"[2]; FeSSIF, Time 24, room temperature",81 µg/mL
same,pH in clear solution,"[2]; SGF, Time 1",1.9
same,Crystal form of insoluble solid sample,"[2]; SGF, Time 1, XRPD",invariability
same,Solubility,"[2]; SGF, Time 1, room temperature",2100 µg/mL
same,pH in clear solution,"[2]; SGF, Time 2",1.9
same,Crystal form of insoluble solid sample,"[2]; SGF, Time 2, XRPD",invariability
same,Solubility,"[2]; SGF, Time 2, room temperature",2700 µg/mL
same,pH in clear solution,"[2]; SGF, Time 4",1.9
same,Crystal form of insoluble solid sample,"[2]; SGF, Time 4, XRPD",invariability
same,Solubility,"[2]; SGF, Time 4, room temperature",2700 µg/mL
same,pH in clear solution,"[2]; SGF, Time 24",2.1
same,Crystal form of insoluble solid sample,"[2]; SGF, Time 24, XRPD",invariability
same,Solubility,"[2]; SGF, Time 24, room temperature",3200 µg/mL
same,pH in clear solution,"[2]; Water, Time 1",5.6
same,pH in clear solution,"[2]; Water, Time 2",5.7
same,Crystal form of insoluble solid sample,"[2]; Water, Time 2, XRPD",invariability
same,Solubility,"[2]; Water, Time 2, room temperature",<LOQ
same,pH in clear solution,"[2]; Water, Time 4",5.6
same,Crystal form of insoluble solid sample,"[2]; Water, Time 4, XRPD",invariability
same,Solubility,"[2]; Water, Time 4, room temperature",<LOQ
same,pH in clear solution,"[2]; Water, Time 24",5.8
same,Crystal form of insoluble solid sample,"[2]; Water, Time 24, XRPD",invariability
same,Solubility,"[2]; Water, Time 24, room temperature",<LOQ
